Experimental data reported in ChEMBL document CHEMBL5360558, “Molecular design, synthesis and anticancer activity of new thiopyrano[2,3-d]thiazoles based on 5-hydroxy-1,4-naphthoquinone (juglone)” (Eur J Med Chem, 2023).
The source made the active and inactive calls. The rule behind the calls is not given here.

Legend:
MDA-MB-231 [1] = experiment: Growth inhibition of human MDA-MB-231 cells incubated for 48 hrs by sulforhodamine B spectrophotometric assay; type: functional
CCRF-CEM [2] = experiment: Induction of cell cycle arrest in human CCRF-CEM cells assessed as accumulation of cells at higher G2/M phase at 4.14 uM incubated for 24 hrs by propidium iodide staining based flow cytometry analysis (reference value: 10.09 +/- 0.14%); type: functional
MDA-MB-435 = experiment: Growth inhibition against human MDA-MB-435 cells assessed as total growth inhibitory concentration incubated for 48 hrs by sulforhodamine B spectrophotometric assay; type: functional
MDA-MB-231 [3] = experiment: Induction of apoptosis in human MDA-MB-231 cells at 5 uM incubated for 24 hrs by Annexin-V-FITC/propidium iodide staining based flow cytometry analysis (reference value: 8.9%); type: functional
Jurkat = experiment: Induction of apoptosis in human Jurkat cells assessed as DNA damage by DNA laddering assay; type: functional, cell-based
CCRF-CEM [4] = experiment: Induction of cell cycle arrest in human CCRF-CEM cells assessed as accumulation of cells at G0/G1 phase at 20.7 uM incubated for 24 hrs by propidium iodide staining based flow cytometry analysis (reference value: 38.68 +/- 0.75%); type: functional
SF-539 = experiment: Growth inhibition against human SF-539 cells assessed as total growth inhibitory concentration incubated for 48 hrs by sulforhodamine B spectrophotometric assay; type: functional
EKVX = experiment: Growth inhibition against human EKVX cells assessed as total growth inhibitory concentration incubated for 48 hrs by sulforhodamine B spectrophotometric assay; type: functional
[5] = Acute toxicity in C57BL/6 mouse assessed as neutrophil count at 20 mg/kg,ip administration and observed after 22 days; type: organism-based; details: in vivo, 528 h, time 22 day
HT-29 [6] = experiment: Growth inhibition of human HT-29 cells incubated for 48 hrs by sulforhodamine B spectrophotometric assay; type: functional
[7] = Acute toxicity in C57BL/6 mouse assessed as change in red blood cells at 20 mg/kg,ip administration observed after 22 days; type: organism-based; details: in vivo, 528 h, time 22 day
CCRF-CEM [8] = experiment: Induction of cell cycle arrest in human CCRF-CEM cells assessed as accumulation of cells at M phase at 4.14 uM incubated for 24 hrs by propidium iodide staining based flow cytometry analysis (reference value: 1.97 +/- 0.042%); type: functional
K562 = experiment: Growth inhibition against human K562 cells assessed as lethal concentration incubated for 48 hrs by sulforhodamine B spectrophotometric assay; type: functional; details: read-out: LC50 (the source's name)
ACHN = experiment: Growth inhibition of human ACHN cells incubated for 48 hrs by sulforhodamine B spectrophotometric assay; type: functional
OVCAR-4 [9] = experiment: Growth inhibition of human OVCAR-4 cells incubated for 48 hrs by sulforhodamine B spectrophotometric assay; type: functional
CCRF-CEM [10] = experiment: Growth inhibition of human CCRF-CEM cells incubated for 48 hrs by sulforhodamine B spectrophotometric assay; type: functional
[11] = Cytotoxicity against human Lymphocyte cells assessed as cell growth inhibition incubated for 72 hrs by MTT assay; type: toxicity, cell-based; details: lymphocytes
KM12 = experiment: Growth inhibition of human KM12 cells incubated for 48 hrs by sulforhodamine B spectrophotometric assay; type: functional
MDA-MB-231 [12] = experiment: Induction of apoptosis in human MDA-MB-231 cells assessed as increase in caspase 3/7 activity at 5 uM incubated for 24 hrs by flow cytometry analysis; type: functional
RXF 393 [13] = experiment: Growth inhibition of human RXF 393 cells incubated for 48 hrs by sulforhodamine B spectrophotometric assay; type: functional
MDA-MB-231 [14] = experiment: Induction of apoptosis in human MDA-MB-231 cells assessed as increase in caspase-8 level at 10 uM incubated for 24 hrs by flow cytometry analysis; type: functional
SK-MEL-5 = experiment: Growth inhibition of human SK-MEL-5 cells incubated for 48 hrs by sulforhodamine B spectrophotometric assay; type: functional
786-0 = experiment: Growth inhibition of human 786-0 cells incubated for 48 hrs by sulforhodamine B spectrophotometric assay; type: functional
OVCAR-5 = experiment: Growth inhibition of human OVCAR-5 cells incubated for 48 hrs by sulforhodamine B spectrophotometric assay; type: functional
NCI-H322M = experiment: Growth inhibition against human NCI-H322M cells assessed as total growth inhibitory concentration incubated for 48 hrs by sulforhodamine B spectrophotometric assay; type: functional
SF-295 = experiment: Growth inhibition against human SF-295 cells assessed as total growth inhibitory concentration incubated for 48 hrs by sulforhodamine B spectrophotometric assay; type: functional
KB 3-1 = experiment: Induction of apoptosis in human KB 3-1 cells assessed as increase in BIP protein expression incubated for 24 hrs by Western blotting assay; type: functional, cell-based
MDA-MB-231 [15] = experiment: Induction of mitochondrial membrane potential loss in human MDA-MB-231 cells at 5 uM incubated for 24 hrs by JC-1 staining based flow cytometry analysis; type: functional
T47D = experiment: Growth inhibition of human T47D cells incubated for 48 hrs by sulforhodamine B spectrophotometric assay; type: functional
M14 = experiment: Growth inhibition of human M14 cells incubated for 48 hrs by sulforhodamine B spectrophotometric assay; type: functional
SR [16] = experiment: Growth inhibition of human SR cells incubated for 48 hrs by sulforhodamine B spectrophotometric assay; type: functional
HCT-15 = experiment: Growth inhibition of human HCT-15 cells incubated for 48 hrs by sulforhodamine B spectrophotometric assay; type: functional
CCRF-CEM [17] = experiment: Induction of cell cycle arrest in human CCRF-CEM cells assessed as RNA synthesis at 4.14 uM incubated for 3 hrs by […] incorporation based flow cytometry analysis (reference value: 31.8 +/- 1.17%); type: functional
SR [18] = experiment: Growth inhibition against human SR cells assessed as lethal concentration incubated for 48 hrs by sulforhodamine B spectrophotometric assay; type: functional; details: read-out: LC50 (the source's name)
HT-29 [19] = experiment: Growth inhibition against human HT-29 cells assessed as total growth inhibitory concentration incubated for 48 hrs by sulforhodamine B spectrophotometric assay; type: functional
RXF 393 [20] = experiment: Growth inhibition against human RXF 393 cells assessed as total growth inhibitory concentration incubated for 48 hrs by sulforhodamine B spectrophotometric assay; type: functional
RPMI-8226 = experiment: Growth inhibition of human RPMI-8226 cells incubated for 48 hrs by sulforhodamine B spectrophotometric assay; type: functional
SK-MEL-2 = experiment: Growth inhibition against human SK-MEL-2 cells assessed as total growth inhibitory concentration incubated for 48 hrs by sulforhodamine B spectrophotometric assay; type: functional
SNB-75 = experiment: Growth inhibition against human SNB-75 cells assessed as lethal concentration incubated for 48 hrs by sulforhodamine B spectrophotometric assay; type: functional; details: read-out: LC50 (the source's name)
SK-MEL-28 = experiment: Growth inhibition of human SK-MEL-28 cells incubated for 48 hrs by sulforhodamine B spectrophotometric assay; type: functional
HL-60 = experiment: Growth inhibition against human HL-60 cells assessed as lethal concentration incubated for 48 hrs by sulforhodamine B spectrophotometric assay; type: functional; details: read-out: LC50 (the source's name)
CCRF-CEM [21] = experiment: Induction of cell cycle arrest in human CCRF-CEM cells assessed as accumulation of cells at sub-G1 phase at 20.7 uM incubated for 24 hrs by propidium iodide staining based flow cytometry analysis (reference value: 2.36 +/- 0.049%); type: functional
OVCAR-4 [22] = experiment: Growth inhibition against human OVCAR-4 cells assessed as total growth inhibitory concentration incubated for 48 hrs by sulforhodamine B spectrophotometric assay; type: functional
U-251 = experiment: Growth inhibition against human U-251 cells assessed as lethal concentration incubated for 48 hrs by sulforhodamine B spectrophotometric assay; type: functional; details: read-out: LC50 (the source's name)

## O=C1C2=C(C(=O)c3c(O)cccc31)C(c1ccco1)c1sc(=O)[nH]c1S2 (centres undefined)
MDA-MB-231 [1]
  GI50: 2.73 µM
CCRF-CEM [2]
  Activity: 12.23%
MDA-MB-435
  TGI: 2.47 µM
MDA-MB-231 [3]
  Activity: 11.7%
Jurkat
  Activity: Active
CCRF-CEM [4]
  Activity: 35.58%
SF-539
  TGI: 3.69 µM
EKVX
  TGI: 19.4 µM
[5]
  Activity: 31.21%
HT-29 [6]
  GI50: 3.3 µM
[7]
  Activity: Non-Toxic
CCRF-CEM [8]
  Activity: 1.25%
K562
  CC50: > 100 µM
ACHN
  GI50: 4.08 µM
OVCAR-4 [9]
  GI50: 1.79 µM
CCRF-CEM [10]
  GI50: 3.29 µM
[11]
  IC50 at 72 h: > 50 µM
KM12
  GI50: 3.71 µM
MDA-MB-231 [12]
  Activity: 10.6%
RXF 393 [13]
  GI50: 2.02 µM
MDA-MB-231 [14]
  Activity: 62.7%
SK-MEL-5
  GI50: 1.59 µM
786-0
  GI50: 7.09 µM
OVCAR-5
  GI50: 2.13 µM
NCI-H322M
  TGI: 3.13 µM
SF-295
  TGI: 3.59 µM
KB 3-1
  Activity: Dose-Dependent Effect
MDA-MB-231 [15]
  Activity: 15.7%
T47D
  GI50: 2.87 µM
M14
  GI50: 1.06 µM
SR [16]
  GI50: 3.05 µM
HCT-15
  GI50: 1.75 µM
CCRF-CEM [17]
  Activity: 23.46%
SR [18]
  CC50: > 100 µM
HT-29 [19]
  TGI: 9.25 µM
RXF 393 [20]
  TGI: 5.57 µM
RPMI-8226
  GI50: 2.62 µM
SK-MEL-2
  TGI: 16.4 µM
SNB-75
  CC50: 25.8 µM
SK-MEL-28
  GI50: 1.87 µM
HL-60
  CC50: > 100 µM
CCRF-CEM [21]
  Activity: 5.8%
OVCAR-4 [22]
  TGI: 3.95 µM
U-251
  CC50: 35.7 µM
